Structures can show the parent of a compound that is named as a salt. Where two headings read alike, the source gives them in different places.

The record followed here is patent EP0874631B1, “USE OF VALACICLOVIR FOR THE MANUFACTURE OF A MEDICAMENT FOR THE TREATMENT OF GENITAL HERPES BY A SINGLE DAILY APPLICATION” (priority 1996, dated 1997).

Common to all, as to type: in vivo, human
Data set [1] has as its system genital herpes simplex virus (HSV) infection. Conditions: for recurrences prevented or delayed / recurrences experienced by placebo patients prevented or delayed: 52 weeks; for safety profiles (valaciclovir, aciclovir and placebo compared): in vivo. An excerpt: Objective: To determine the efficacy and safety of 4 doses of oral valaciclovir compared with aciclovir and placebo for the suppression of genital herpes in otherwise healthy patients.
Methods: This study was a multi-centre, international, six-arm, parallel group, randomised, double-blind comparison of the efficacy and safety of 4 doses of oral valaciclovir with oral aciclovir and placebo for the suppression of recurrent episodes of genital herpes simplex virus (HSV) infection in immunocompetent patients. A total of 1279 patients with a history of recurrent genital herpes were randomised into one of 6 treatment arms with a 2:2:2:2:2:1 treatment allocation and followed for 52 weeks. Patients visited the clinic at monthly intervals and on Days 1 and 5 of a genital HSV recurrence. Safety was assessed by adverse experience reporting at each visit and by clinical chemistry and haematology testing every 3 or 6 months respectively.
274 patients received 250 mg twice daily valaciclovir (reference example); 269 patients received 1000 mg once daily valaciclovir; 266 patients received 500 mg once daily valaciclovir; 269 patients received 250 mg once daily valaciclovir; 267 patients received 400 mg twice daily aciclovir; and 134 patients received placebo.

The test system of data set [2] is frequently recurrent genital herpes. Kind of data set: double blind, placebo controlled multicentre clinical trial of once daily suppressive therapy. The following applies: 500 mg once daily.
Procedure: In another study once daily valaciclovir (as the hydrochloride salt), was evaluated as suppressive therapy in a double blind, placebo controlled multicentre clinical trial in otherwise healthy immunocompetent patients with frequently recurrent genital herpes. A total of 382 patients with a history of >8 genital herpes recurrences per year were randomised (3:1) to treatment with once daily valaciclovir (500 mg) or placebo for 16 weeks. Patients experiencing a recurrence discontinued double blind therapy and received open label episodic valaciclovir (500 mg twice daily) for 5 days. They then continued on open label daily valaciclovir, as did those completing the 16 week double blind phase of study without evidence of a breakthrough recurrence, for a total of 48 weeks. Patients were assessed 4-weekly (double blind phase) and every 8 weeks thereafter. The primary efficacy end-point was time to first genital herpes recurrence.
Data set [3] has as its system recurrent genital herpes. In words: open-label 1-year study of suppressive therapy in patients previously on chronic acyclovir suppression. Here is the method: OBJECTIVE: To document the number of genital herpes outbreaks during a 1-year period of suppressive therapy with valaciclovir hydrochloride in patients previously receiving chronic suppressive therapy with acyclovir. METHODS: A total of 127 patients (81 Males, 46 Females) from 11 study sites enrolled in this open-label study. […] Upon discontinuation of acyclovir, patients received 500 mg valaciclovir hydrochloride once daily. For any genital herpes recurrence, patients self-initiated treatment with valaciclovir hydrochloride 500 mg twice daily for 5 days, then resumed once daily therapy. Patients documented recurrences in a diary and returned to the clinic every three months for drug safety and recurrence evaluation.

Where [4] appears, read: 250 mg twice daily (reference example).
Where [5] appears, read: 400 mg twice daily, entire tenth study year of acyclovir suppression.

For `CC(C)[C@H](N)C(=O)OCCOCn1cnc2c(=O)[nH]c(N)nc21` [valaciclovir, 2-[(2-amino-1,6-dihydro-6-oxo-9H-purin-9-yl)methoxy]ethyl L-valinate], the “patients remained recurrence-free during the study period” value in data set [1] (250 mg once daily, 12 months) was 22%. Moreover, in data set [1] (250 mg once daily), the “recurrences prevented or delayed” value came to 54%. In data set [1] (setting [4]), the “patients recurrence-free after 12 months” value was “approximately half” and the “recurrences experienced by placebo patients prevented or delayed” value (“recurrences experienced” for short) is on record as 78-79%. In addition, in data set [1] (500 mg once daily), the “patients recurrence-free at 12 months” value is given as “Forty” and the “recurrences prevented or delayed” value was 71%. Besides, in data set [1] (1000 mg once daily), the “patients recurrence-free after 12 months” value was “approximately half” and the “recurrences experienced” value was 78-79%. Also, in data set [1], the “safety profiles (valaciclovir, aciclovir and placebo compared)” value is given as “similar”. The “reduction in recurrence rate relative to placebo” value in data set [2] (16 weeks, intent-to-treat population) worked out at 85%. Further, in data set [2] (adverse events infrequent and generally mild), the tolerability entry was “well tolerated”.
With `Nc1nc2c(ncn2COCCO)c(=O)[nH]1` [acyclovir, 9-[(2-hydroxyethoxy)methyl]guanine, reference compound], in data set [1] (400 mg twice daily), the “patients recurrence-free after 12 months” value is reported as “approximately half” and the “recurrences experienced” value is 78-79%. In addition, the “safety profiles (valaciclovir, aciclovir and placebo compared)” value in data set [1] was “similar”. Also, in data set [3] (setting [5]), the “mean quarterly recurrence free rate” value amounted to 89% and the “yearly recurrence free rate” value is 75%.
In the case of `CC(C)[C@H](N)C(=O)OCCOCn1cnc2c(=O)[nH]c(N)nc21` [valaciclovir hydrochloride, 2-[(2-amino-1,6-dihydro-6-oxo-9H-purin-9-yl)methoxy]ethyl-L-valinate hydrochloride], the “total recurrence free rate” value in data set [3] (500 mg once daily, after six months of suppressive therapy (93 of 126 patients)) amounted to 74%. Further, the “patients remained free of recurrences” value in data set [3] (500 mg once daily, after the first three months of suppressive therapy (102 of 126 patients)) is reported as 81%; in data set [3] (500 mg once daily, following the next three months of suppressive therapy (101 of 119 patients)) it was 85%. In data set [3] (500 mg once daily, for 6 months), the tolerability result was “well tolerated”.
